From US5798335A, “Method for the treatment or prevention of eczema/dermatitis” (priority 1993, dated 1998)

Legend:
inflammatory lesions = details: three lesions severity 1 on back; dermal spray morning and afternoon; after three days
Method: The usefulness of the method of the present invention was assessed in experiments using dogs.

skin conditions = system: skin conditions
Method: Following these initial trials a further trial was conducted […].
The trial was a double-blinded, placebo controlled trial in which the compound was compared with placebo treatment. […] The study was conducted as follows:
1. Assessment by a veterinarian.
2. Treatment Period A: 14 days.
3. Assessment by a veterinarian.
4. No treatment for seven days as a wash-out period.
5. Assessment by a veterinarian.
6. Treatment Period B: 14 days.
7. Assessment by a veterinarian.
8. No treatment for seven days.
9. Assessment by a veterinarian.

## D-Ala-Ser-Thr-Thr-Thr-Asn-Tyr-Thr-NH2 [Peptide T]
Inflammatory lesions
  Treatment results (lesions): Lesions had disappeared
Skin conditions; 14 day treatment period, crossover with placebo
  cases of mild improvement in one parameter (usually erythema): five
Skin conditions; 14 day treatment period, these dogs had atopic dermatitis
  dogs with significant improvement: two
Skin conditions; 14 day treatment periods, crossover with placebo
  dogs with no change: ten
